Assay results: patent US10738028B2, “Spiro three-membered ring, spiro five-membered ring peptide deformylase inhibitor and use thereof in antibacteria and anti-tumor” (priority 2016, dated 2020)
Read-outs that look alike come from different tables or passages of the source.

Columns and labels:
[1] = test system: methemoglobin in blood samples of three healthy volunteers; experiment: Toxicity on methemoglobin in vitro (whole blood with S9 and NADPH, absorbance at 630 nm); format: cell-based, human; conditions: 500 μM compound; whole blood + S9 + NADPH; 5 hours at 37° C.
Protocol: Because PDF inhibitors such as LBM415 and GSK1322322 can produce active species such as aromatic hydroxylamine and aromatic hydrazines in metabolic process, and cause human methemoglobinemia. To this end, continuous wavelength method was adopted in this invention to scan the absorption spectrum of blood samples in the wavelength range of 500 to 700 nm in the ultraviolet-visible spectrophotometer, and the contents of methemoglobin in blood samples of three healthy volunteers were calculated, after being effected by the synthesized compounds.
Experimental materials: Nicotinamide adenine dinucleotide phosphate (NADPH) reduction system: glucose-6-disodium phosphate, nicotinamide adenine dinucleoside phosphate and glucose-6-phosphate dehydrogenase (purchased from Shanghai yuanye Bio-Technology Co., Ltd) were added to 1 mL of phosphate buffer solution (PBS, pH 7.4), and the mixture was shaked in a shaker type water bath at 37° C. for 10 min, and then cooled to 0° C. Mixed human hepatocytes fraction S9 was purchased from Xenotech (20 mg S9 protein/1 mL suspension medium). Compounds were prepared to stock solution at a concentration of 50 mM, which was stored at −20° C. for use. Dapsone was used as positive control experimental reagent, which was purchased from Sigma Aldrich. 1% w/v triton X-100 was self-prepared. Blood samples were collected using Vacutainer tubes containing EDTA anticoagulants (BD, Franklin Lakes, USA), which were sampled from three healthy volunteers and used immediately after sampling.
Preparation of incubation system for blood samples and drugs: 250 μL of incubation system was consist of 220 μL of whole blood, 25 μL of S9 (final concentration: 2 mg S9 protein/mL incubation solution), 2.5 μL of NADPH form system (final concentration: 10 mM G-6-P, 1 mM NADP, 7.5 Units/mL) and 2.5 μL of stock solution of a compound (final concentration 500 μM). […] of incubation system was placed in an Eppendorf tube and incubated for 5 hours at 37° C. in water bath.
Determination of the content of methemoglobin: 60 μL of an incubated sample was taken and lysed with 3.0 mL of 1% Triton X-100. The content of methemoglobin (MetHb) was measured by an ultraviolet-visible spectrophotometer, with the Triton X-100 solution used as blank control. A sample was placed in a cuvette, 1 minute later, the spectrums of the sample in the wavelength range from 500 nm to 700 nm were recorded. The sample was added with 2 mg of potassium ferricyanide, and was allowed to stay stationary for 2 minutes for completely oxidization of ferrous iron in the sample, and standard spectrum of methemoglobin with saturated potassium ferricyanide. The percentage of methemoglobin formation (MetHb %) was obtained by the ratio of absorbance at 630 nm. MetHb %=(A′−AB′)/AM′, wherein, A′ was the total absorbance of the sample at 630 nm, AB′ was the base absorbance of the reduced blood in the sample at 630 nm, and AM′ was the absorbance of oxidized blood with saturated potassium ferricyanide at 630 nm.

[2] = test system: methicillin-resistant Staphylococcus aureus (MRSA); experiment: MIC, two-fold agar dilution (CLSI), clinical isolates; format: cell-based
Summary of the method: (§1)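 Following the American Clinical and Laboratory Standards Institute procedure, agar two-fold dilution served to determine minimum inhibitory concentrations.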

[3] = test system: Escherichia coli (including ESBLs, non-ESBLs); experiment: as above; format: cell-based
Summary of the method: as §1

[4] = test system: methicillin-sensitive Staphylococcus aureus (MSSA); experiment: as above; format: cell-based
Summary of the method: as §1

[5] = test system: Enterococcus faecalis (EFA); experiment: as above; format: cell-based
Summary of the method: as §1

[6] = test system: methicillin-sensitive Staphylococcus epidermidis (MSSE); experiment: as above; format: cell-based
Summary of the method: as §1

[7] = test system: methicillin-resistant Staphylococcus epidermidis (MRSE); experiment: as above; format: cell-based
Summary of the method: as §1

the test strains = experiment: MIC against the test strains (strain not given); format: cell-based; conditions: read-out: MIC (azole amide bioisosteres)
Description: 1. The invention adopts the two-fold agar dilution method recommended by the operating procedure of antimicrobial susceptibility testing set by American Clinical and Laboratory Standards Institute (CLSI) to determine the Minimum Inhibitory Concentration (MIC) of the test samples against the tested strains.

[8] = test system: HCT-116 colorectal cancer cell line; experiment: CCK-8 proliferation inhibition; format: cell-based; conditions: for inhibition at 30 µM: Homo sapiens, HCT-116, 72 h, read-out: HCT116 inhibition rate/%
Summary of the method: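 Proliferation over 72 hours of compound treatment was measured with CCK-8 against a 1‰ DMSO control.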

[9] = test system: Streptococcus pneoumoniae (SPN); experiment: MIC, two-fold agar dilution (CLSI), clinical isolates; format: cell-based
Summary of the method: as §1

[10] = test system: Moraxella catarrhalis (BCA); experiment: as above; format: cell-based
Summary of the method: as §1

[11] = test system: Enterococcus faecium (EFM); experiment: as above; format: cell-based
Summary of the method: as §1

[12] = test system: MGC-803 gastric cancer cell line; experiment: CCK-8 proliferation inhibition; format: cell-based; conditions: concentration of 30 μM
Summary of the method: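 Using media specific to each line (1640 for MGC-803 and Jurkat, F12 for PC3, DMEM high glucose for MCF-7, each with 10% newborn bovine serum), cells at 2000/well were treated for 72 h with serially formulated compounds, then assessed with CCK-8 diluted 1:10.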

[13] = test system: BEL-7402 liver cancer cell line; experiment: CCK-8 proliferation inhibition; format: cell-based; conditions: concentration of 30 μM
Summary of the method: (§2)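 Plating at 2000 cells/well, then incubation overnight at 37° C. Next, a range of compound concentrations for 72 hours (control 1‰ DMSO). Finally, medium decanted and CCK-8 diluted 1:10 added.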

[14] = test system: A549 lung cancer cell line; experiment: CCK-8 proliferation inhibition; format: cell-based; conditions: Homo sapiens, A549, 72 h, concentration of 30 μM
Summary of the method: as §2

CCCC[C@H](CN(O)C=O)C(=O)N1CC2(CC2)C[C@H]1c1nc2ccccc2[nH]1 [Example 10, N—((R)-2-((S)-6-(1H-benzimidazol-2-yl)-5-azaspiro[2.4]heptane-5-carbonyl)hexyl)-N-hydroxyformamide]
1.12 ± 0.01%: MetHb % (n = 3) [1]
2 µg/mL: MIC (anti-bacterial activity) ([2]; strain MRSA 14-2) | MIC (anti-bacterial activity) ([2]; strain MRSA 14-4) | MIC (anti-bacterial activity) ([4]; strain MSSA 14-1) | MIC (anti-bacterial activity) ([4]; strain MSSA 14-2) | MIC (anti-bacterial activity) ([4]; strain MSSA 14-3) | MIC (anti-bacterial activity) ([4]; strain MSSA 14-4) | MIC (anti-bacterial activity) ([6]; strain MSSE 14-2) | MIC (anti-bacterial activity) ([6]; strain MSSE 14-4)
8 µg/mL: MIC (anti-bacterial activity) ([5]; strain EFA 14-1) | MIC (anti-bacterial activity) ([5]; strain EFA 14-2) | MIC (anti-bacterial activity) ([5]; strain EFA 14-3)
1 µg/mL: MIC (anti-bacterial activity) ([2]; strain MRSA 14-1) | MIC (anti-bacterial activity) ([2]; strain printed MRSA 14-1 (second line of that name, r23, before MRSE 14-2)) | MIC (anti-bacterial activity) ([7]; strain MRSE 14-2) | MIC (anti-bacterial activity) ([7]; strain MRSE 14-4)
32 µg/mL: MIC (anti-bacterial activity) ([3]; strain ECO+ 14-2) | MIC (anti-bacterial activity) ([3]; strain ECO− 14-1) | MIC (anti-bacterial activity) ([3]; strain ECO− 14-2)
0.5 to 2 µg/mL: MIC (the test strains)
10%: inhibition at 30 µM [8]
64 µg/mL: MIC (anti-bacterial activity) ([5]; strain EFA 14-5)
0.5 µg/mL: MIC (anti-bacterial activity) ([2]; strain MRSA 14-5) | MIC (anti-bacterial activity) ([3]; strain ECO+ 14-1) | MIC (anti-bacterial activity) ([6]; strain MSSE 14-1) | MIC (anti-bacterial activity) ([6]; strain MSSE 14-3) | MIC (anti-bacterial activity) ([7]; strain MRSE 14-3)

O=C(C[C@@H](CC1CCCC1)C(=O)N1CC2(CC2)C[C@H]1c1nc2ccccc2[nH]1)NO [Example 75, (R)-4-((S)-6-(1H-benzimidazol-2-yl)-5-azaspiro[2.4]heptane-5-yl)-3-(cyclopentylmethyl)-N-hydroxy-4-oxobutanamide]
51%: Inhibition of proliferation, Gastric cancer MGC-803 ([12]; 72 hours, 30 µM)
> 32 µg/mL: Anti-bacterial activity (MIC) ([5]; strain EFA 15-1) | Anti-bacterial activity (MIC) ([5]; strain EFA 15-2) | Anti-bacterial activity (MIC) ([5]; strain EFA 15-3) | Anti-bacterial activity (MIC) ([5]; strain EFA 15-4) | Anti-bacterial activity (MIC) ([5]; strain EFA 15-5) | Anti-bacterial activity (MIC) ([5]; strain EFA 15-6) | Anti-bacterial activity (MIC) ([5]; strain EFA 15-9) | Anti-bacterial activity (MIC) ([11]; strain EFM 15-1) | Anti-bacterial activity (MIC) ([11]; strain EFM 15-2) | Anti-bacterial activity (MIC) ([11]; strain EFM 15-3)
45%: inhibition at 30 µM [14]
0.5 to 2 µg/mL: MIC (the test strains)
59%: HCT116 inhibition rate/% ([8]; concentration of 30 μM, 72 hours, CCK-8, 30 µM)
8 µg/mL: Anti-bacterial activity (MIC) ([10]; strain BCA 14-4) | Anti-bacterial activity (MIC) ([10]; strain BCA 14-6)
> 50%: inhibition at 30 µM ([12]; Homo sapiens, MGC-803, 72 h) | inhibition at 30 µM ([13]; Homo sapiens, Bel-7402, 72 h) | inhibition at 30 µM ([8]; concentration of 30 μM, 72 hours, CCK-8)
1 µg/mL: Anti-bacterial activity (MIC), strain MRSA 15-1 ([2]; clinical isolate MRSA 15-1) | Anti-bacterial activity (MIC), strain MRSA 15-3 ([2]; clinical isolate MRSA 15-3) | Anti-bacterial activity (MIC), strain MRSA 15-4 ([2]; clinical isolate MRSA 15-4) | Anti-bacterial activity (MIC) ([9]; strain SPN 16-2) | Anti-bacterial activity (MIC), strain MSSE 15-3 ([6]; clinical isolate MSSE 15-3) | Anti-bacterial activity (MIC), strain MSSE 15-4 ([6]; clinical isolate MSSE 15-4) | Anti-bacterial activity (MIC), strain MSSE 15-5 ([6]; clinical isolate MSSE 15-5) | Anti-bacterial activity (MIC), strain MRSE 15-1 ([7]; clinical isolate MRSE 15-1)
32 µg/mL: Anti-bacterial activity (MIC), strain ECO+ 15-2 ([3]; clinical isolate ECO+ 15-2) | Anti-bacterial activity (MIC), strain ECO+ 15-3 ([3]; clinical isolate ECO+ 15-3) | Anti-bacterial activity (MIC), strain ECO− 15-2 ([3]; clinical isolate ECO− 15-2) | Anti-bacterial activity (MIC), strain ECO− 15-3 ([3]; clinical isolate ECO− 15-3) | Anti-bacterial activity (MIC), strain ECO− 15-4 ([3]; clinical isolate ECO− 15-4)
16 µg/mL: Anti-bacterial activity (MIC), strain ECO+ 15-1 ([3]; clinical isolate ECO+ 15-1) | Anti-bacterial activity (MIC), strain ECO+ 15-4 ([3]; clinical isolate ECO+ 15-4) | Anti-bacterial activity (MIC), strain ECO− 15-1 ([3]; clinical isolate ECO− 15-1) | Anti-bacterial activity (MIC), strain MSSA 15-6 ([4]; clinical isolate MSSA 15-6)
2 µg/mL: Anti-bacterial activity (MIC), strain MRSA 15-2 ([2]; clinical isolate MRSA 15-2) | Anti-bacterial activity (MIC), strain MSSA 15-3 ([4]; clinical isolate MSSA 15-3) | Anti-bacterial activity (MIC) ([10]; strain BCA 14-5) | Anti-bacterial activity (MIC) ([10]; strain BCA 14-10) | Anti-bacterial activity (MIC), strain MRSE 15-2 ([7]; clinical isolate MRSE 15-2) | Anti-bacterial activity (MIC) ([11]; strain EFM 15-4) | Anti-bacterial activity (MIC) ([11]; strain EFM 15-5) | Anti-bacterial activity (MIC) ([11]; strain EFM 15-6)
0.5 µg/mL: Anti-bacterial activity (MIC), strain MSSA 15-4 ([4]; clinical isolate MSSA 15-4) | Anti-bacterial activity (MIC), strain MSSA 15-5 ([4]; clinical isolate MSSA 15-5) | Anti-bacterial activity (MIC) ([9]; strain SPN 16-4) | Anti-bacterial activity (MIC), strain MSSE 15-6 ([6]; clinical isolate MSSE 15-6)
70%: Inhibition of proliferation, Liver cancer BEL-7402 ([13]; 72 hours, 30 µM)
4 µg/mL: Anti-bacterial activity (MIC) ([10]; strain BCA 14-1) | Anti-bacterial activity (MIC) ([10]; strain BCA 14-7) | Anti-bacterial activity (MIC) ([10]; strain BCA 14-8) | Anti-bacterial activity (MIC), strain MRSE 15-3 ([7]; clinical isolate MRSE 15-3) | Anti-bacterial activity (MIC), strain MRSE 15-7 ([7]; clinical isolate MRSE 15-7)
